From US12275731B2, “Azaindole inhibitors of wild-type and mutant forms of LRRK2” (DANA-FARBER CANCER INSTITUTE, INC., priority 2018, dated 2025) come the findings set out here.

Holding throughout (assay): KinomeScan profiling
Holding throughout (type): binding

The target of one assay is CAMK2B (Homo sapiens, UniProt Q13554). The following applies: read-out: % control. Summed up:
(§1)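 Normalised RLU (% control; DMSO 100%, positive control 0%) was measured for compounds dosed at 1 μM over 468 kinases, active cut-off <35%.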

For another assay, the target named is T1, CDC2L2 (Homo sapiens, UniProt Q9UQ88).
T1 sequence (Q9UQ88 1-783): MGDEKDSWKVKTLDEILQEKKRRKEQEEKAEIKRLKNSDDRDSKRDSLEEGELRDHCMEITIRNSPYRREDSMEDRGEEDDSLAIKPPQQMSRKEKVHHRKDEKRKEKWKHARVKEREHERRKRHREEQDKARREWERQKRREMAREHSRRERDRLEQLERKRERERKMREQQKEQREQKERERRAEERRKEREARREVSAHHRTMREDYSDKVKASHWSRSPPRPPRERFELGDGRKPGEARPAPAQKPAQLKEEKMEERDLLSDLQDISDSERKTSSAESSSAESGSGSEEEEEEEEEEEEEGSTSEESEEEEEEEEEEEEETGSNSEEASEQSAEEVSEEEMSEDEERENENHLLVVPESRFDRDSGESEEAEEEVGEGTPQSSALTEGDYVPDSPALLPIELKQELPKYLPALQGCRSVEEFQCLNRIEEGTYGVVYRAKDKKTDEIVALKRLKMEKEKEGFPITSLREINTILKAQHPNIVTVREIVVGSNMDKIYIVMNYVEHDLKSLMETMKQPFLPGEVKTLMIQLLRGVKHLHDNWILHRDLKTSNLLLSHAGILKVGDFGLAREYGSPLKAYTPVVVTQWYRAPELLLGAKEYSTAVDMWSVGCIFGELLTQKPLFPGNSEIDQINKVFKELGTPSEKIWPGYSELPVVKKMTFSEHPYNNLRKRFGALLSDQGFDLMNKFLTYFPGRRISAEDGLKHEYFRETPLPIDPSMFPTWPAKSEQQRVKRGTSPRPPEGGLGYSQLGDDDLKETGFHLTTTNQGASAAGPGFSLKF
The following applies: CDC2L2, 1 μM; read-out: % control. The essentials:
as §1

A further assay addresses EGFR(L858R) (Homo sapiens, UniProt P00533, L858R). The following applies: read-out: % control. The essentials:
as §1

For a further assay, the target named is MAPKAPK2 (Homo sapiens, UniProt P49137). The following applies: MAPKAPK2, 1 μM; read-out: % control. Summed up: as §1
Another assay deals with MLK1 (Homo sapiens, UniProt P80192). The following applies: MLK1, 1 μM; read-out: % control. Summed up: as §1
A further assay deals with T2, PLK4 (Homo sapiens, UniProt O00444).
T2 sequence (O00444 1-970): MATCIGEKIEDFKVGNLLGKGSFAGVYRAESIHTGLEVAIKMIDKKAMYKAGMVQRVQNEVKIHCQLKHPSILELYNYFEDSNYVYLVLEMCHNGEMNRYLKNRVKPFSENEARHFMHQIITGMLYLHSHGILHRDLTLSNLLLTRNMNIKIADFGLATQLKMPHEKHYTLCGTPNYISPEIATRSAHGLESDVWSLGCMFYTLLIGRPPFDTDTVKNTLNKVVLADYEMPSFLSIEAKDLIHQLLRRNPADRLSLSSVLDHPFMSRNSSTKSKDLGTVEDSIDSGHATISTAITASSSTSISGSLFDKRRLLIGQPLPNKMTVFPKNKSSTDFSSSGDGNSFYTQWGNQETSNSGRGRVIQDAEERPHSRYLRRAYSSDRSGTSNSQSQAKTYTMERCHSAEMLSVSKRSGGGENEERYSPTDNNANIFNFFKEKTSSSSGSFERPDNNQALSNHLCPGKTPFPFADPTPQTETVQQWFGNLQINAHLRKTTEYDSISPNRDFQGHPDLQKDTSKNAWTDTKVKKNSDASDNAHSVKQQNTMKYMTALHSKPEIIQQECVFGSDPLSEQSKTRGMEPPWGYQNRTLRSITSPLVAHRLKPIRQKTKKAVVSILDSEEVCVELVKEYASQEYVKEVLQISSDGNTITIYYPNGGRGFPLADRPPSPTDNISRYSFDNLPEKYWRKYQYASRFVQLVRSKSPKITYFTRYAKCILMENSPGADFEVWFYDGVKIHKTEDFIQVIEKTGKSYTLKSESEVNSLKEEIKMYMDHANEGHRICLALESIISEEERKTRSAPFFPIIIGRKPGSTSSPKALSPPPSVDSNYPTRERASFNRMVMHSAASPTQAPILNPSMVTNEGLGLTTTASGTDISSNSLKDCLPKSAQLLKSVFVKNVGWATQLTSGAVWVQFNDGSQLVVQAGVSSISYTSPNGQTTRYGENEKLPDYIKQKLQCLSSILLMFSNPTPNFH
To be noted: PLK4, 1 μM; read-out: % control. Summed up:
as §1

Chain of MLK1 (P80192 whole entry): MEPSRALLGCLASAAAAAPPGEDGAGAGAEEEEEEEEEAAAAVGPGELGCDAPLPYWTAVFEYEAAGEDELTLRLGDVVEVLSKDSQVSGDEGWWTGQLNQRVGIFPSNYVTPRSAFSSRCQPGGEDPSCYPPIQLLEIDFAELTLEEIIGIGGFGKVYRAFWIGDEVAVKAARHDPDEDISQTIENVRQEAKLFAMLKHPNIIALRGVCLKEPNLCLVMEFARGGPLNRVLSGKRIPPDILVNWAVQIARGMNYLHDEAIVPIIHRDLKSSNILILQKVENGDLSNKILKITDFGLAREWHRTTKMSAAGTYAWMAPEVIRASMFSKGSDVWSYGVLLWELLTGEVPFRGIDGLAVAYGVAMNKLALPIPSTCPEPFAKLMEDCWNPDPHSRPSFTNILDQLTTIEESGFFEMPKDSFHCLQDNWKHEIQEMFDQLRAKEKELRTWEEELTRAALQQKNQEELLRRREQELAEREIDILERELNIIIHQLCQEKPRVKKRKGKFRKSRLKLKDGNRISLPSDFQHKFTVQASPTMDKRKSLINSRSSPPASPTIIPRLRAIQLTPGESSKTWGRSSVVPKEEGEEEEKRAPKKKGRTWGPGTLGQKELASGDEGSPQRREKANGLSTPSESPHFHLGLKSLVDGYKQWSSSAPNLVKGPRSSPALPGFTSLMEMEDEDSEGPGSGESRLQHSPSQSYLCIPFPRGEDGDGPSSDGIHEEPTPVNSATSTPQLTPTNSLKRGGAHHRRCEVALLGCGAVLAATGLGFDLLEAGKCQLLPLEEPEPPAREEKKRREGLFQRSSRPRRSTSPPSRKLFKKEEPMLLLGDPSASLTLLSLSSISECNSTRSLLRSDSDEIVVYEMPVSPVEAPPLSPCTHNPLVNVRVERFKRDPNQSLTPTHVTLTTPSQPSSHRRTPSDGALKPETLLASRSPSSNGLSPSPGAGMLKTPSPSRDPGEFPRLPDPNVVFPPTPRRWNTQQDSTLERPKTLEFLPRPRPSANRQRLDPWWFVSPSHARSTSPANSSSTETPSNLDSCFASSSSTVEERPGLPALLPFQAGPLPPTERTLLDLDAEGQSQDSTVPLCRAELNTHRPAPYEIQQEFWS
Chain of MAPKAPK2 (P49137 whole entry): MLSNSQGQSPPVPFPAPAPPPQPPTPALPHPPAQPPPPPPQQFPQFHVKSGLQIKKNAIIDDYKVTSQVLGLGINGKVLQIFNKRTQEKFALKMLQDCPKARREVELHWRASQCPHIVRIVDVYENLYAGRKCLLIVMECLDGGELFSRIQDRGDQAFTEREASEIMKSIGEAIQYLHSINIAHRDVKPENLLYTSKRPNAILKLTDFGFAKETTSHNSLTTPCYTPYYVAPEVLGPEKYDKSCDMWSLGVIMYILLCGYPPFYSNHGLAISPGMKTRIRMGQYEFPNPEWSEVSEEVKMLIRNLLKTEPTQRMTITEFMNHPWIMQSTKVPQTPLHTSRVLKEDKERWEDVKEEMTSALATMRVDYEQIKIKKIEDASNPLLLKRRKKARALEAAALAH
Chain of EGFR(L858R) (P00533 25-1210 L858R): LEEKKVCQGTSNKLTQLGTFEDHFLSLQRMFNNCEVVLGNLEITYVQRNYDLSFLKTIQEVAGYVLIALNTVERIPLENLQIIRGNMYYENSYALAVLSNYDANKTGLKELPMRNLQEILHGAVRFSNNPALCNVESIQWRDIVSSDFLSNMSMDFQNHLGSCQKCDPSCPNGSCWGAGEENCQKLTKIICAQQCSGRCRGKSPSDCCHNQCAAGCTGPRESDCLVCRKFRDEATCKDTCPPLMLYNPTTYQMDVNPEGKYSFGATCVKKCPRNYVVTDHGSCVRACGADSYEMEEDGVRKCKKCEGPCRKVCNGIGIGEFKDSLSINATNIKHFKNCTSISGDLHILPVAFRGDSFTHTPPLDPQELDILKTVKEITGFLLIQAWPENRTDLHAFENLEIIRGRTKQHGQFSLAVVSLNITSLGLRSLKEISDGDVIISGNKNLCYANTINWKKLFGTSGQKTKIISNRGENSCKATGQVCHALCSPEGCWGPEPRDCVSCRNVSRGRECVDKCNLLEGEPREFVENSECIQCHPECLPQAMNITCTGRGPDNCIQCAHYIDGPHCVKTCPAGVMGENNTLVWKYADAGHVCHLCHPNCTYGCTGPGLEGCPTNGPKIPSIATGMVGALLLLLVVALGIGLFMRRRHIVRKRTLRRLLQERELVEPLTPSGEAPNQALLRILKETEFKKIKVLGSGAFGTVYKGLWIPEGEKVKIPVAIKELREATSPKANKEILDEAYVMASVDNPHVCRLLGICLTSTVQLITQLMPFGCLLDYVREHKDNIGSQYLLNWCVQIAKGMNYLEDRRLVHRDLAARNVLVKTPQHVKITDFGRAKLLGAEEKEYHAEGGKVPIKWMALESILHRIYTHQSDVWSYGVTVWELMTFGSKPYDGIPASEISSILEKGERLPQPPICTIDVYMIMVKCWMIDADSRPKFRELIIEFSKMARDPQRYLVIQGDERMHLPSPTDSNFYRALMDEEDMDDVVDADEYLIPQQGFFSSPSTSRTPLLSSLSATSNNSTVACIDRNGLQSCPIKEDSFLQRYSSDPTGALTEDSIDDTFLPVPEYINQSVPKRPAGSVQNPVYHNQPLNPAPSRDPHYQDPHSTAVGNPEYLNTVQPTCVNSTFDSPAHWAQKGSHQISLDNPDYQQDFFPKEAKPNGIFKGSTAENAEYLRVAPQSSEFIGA
Chain of CAMK2B (Q13554 whole entry): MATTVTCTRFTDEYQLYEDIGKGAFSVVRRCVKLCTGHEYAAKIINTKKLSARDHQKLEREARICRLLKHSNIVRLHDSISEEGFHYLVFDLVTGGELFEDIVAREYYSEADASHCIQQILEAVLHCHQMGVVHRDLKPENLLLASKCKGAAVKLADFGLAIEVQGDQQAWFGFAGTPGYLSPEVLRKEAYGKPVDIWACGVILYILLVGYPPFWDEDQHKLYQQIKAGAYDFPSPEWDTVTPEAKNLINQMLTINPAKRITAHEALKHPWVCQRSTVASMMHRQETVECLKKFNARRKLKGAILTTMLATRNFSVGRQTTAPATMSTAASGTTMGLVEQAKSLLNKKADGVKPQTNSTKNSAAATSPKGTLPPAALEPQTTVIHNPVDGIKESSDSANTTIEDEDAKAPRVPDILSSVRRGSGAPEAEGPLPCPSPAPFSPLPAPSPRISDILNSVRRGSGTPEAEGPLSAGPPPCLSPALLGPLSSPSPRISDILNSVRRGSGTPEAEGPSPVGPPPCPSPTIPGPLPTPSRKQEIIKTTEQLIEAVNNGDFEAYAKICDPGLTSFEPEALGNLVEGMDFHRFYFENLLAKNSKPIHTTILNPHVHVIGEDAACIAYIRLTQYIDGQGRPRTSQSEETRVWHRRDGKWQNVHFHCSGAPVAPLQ

Turning to `CNc1c(-c2cnn([C@H]3CCN(C(C)=O)C[C@@H]3F)c2)cnc2[nH]cc(Cl)c12` [Compound 77, 1-((3S,4S)-4-(4-(3-chloro-4-(methylamino)-1H-pyrrolo[2,3-b]pyridin-5-yl)-1H-pyrazol-1-yl)-3-fluoropiperidin-1-yl)ethan-1-one], the remaining binding at 1 µM on CAMK2B is 100%; on CDC2L2, 91%; at EGFR(L858R) it was 100%; at MAPKAPK2, 100%; on MLK1, 91%; at PLK4, 27%.
Take `CNc1c(-c2ccc(C(=O)N3CCC(N4CCOCC4)CC3)cc2)cnc2[nH]cc(Cl)c12` [Compound 96, (4-(3-chloro-4-(methylamino)-1H-pyrrolo[2,3-b]pyridin-5-yl)phenyl)(4-morpholinopiperidin-1-yl)methanone]: the remaining binding at 1 µM on CAMK2B is 100%; on CDC2L2 it was 100%; at EGFR(L858R) it was 100%; at MAPKAPK2 it was 100%; on MLK1, 96%; on PLK4, 27%.
As for `O=C(c1ccc(-c2cnc3[nH]cc(Cl)c3c2NC2CCCC2)cc1)N1CCC(N2CCOCC2)CC1` [Compound 101, (4-(3-chloro-4-(cyclopentylamino)-1H-pyrrolo[2,3-b]pyridin-5-yl)phenyl)(4-morpholinopiperidin-1-yl)methanone], the remaining binding at 1 µM is 99% at CAMK2B; 92% on CDC2L2; 96% at EGFR(L858R); 51% on MAPKAPK2; 96% at MLK1; 78% on PLK4.
